The target in test [1] is 5-hydroxytryptamine receptor 2A (Mus musculus, UniProt P35363). In kind it is functional, cell-based.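 Further: CHO-K1 cells with tagged receptor and beta-arrestin; agonist potency measured as compound-induced activation of the receptor.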
Test [2] concerns the target Mu-type opioid receptor (Homo sapiens, UniProt P35372). It counts as functional, cell-based.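 Further: U2OS cells with beta-arrestin recruitment to OPRM1 by beta-gal complementation.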
The nature of test [3]: cells. In kind it is functional, cell-based. As to conditions: HEK-CNG.
Test [4] has as its target Galanin receptor type 3 (Homo sapiens, UniProt O60755). In words: Fluorescence-based cell-based primary high throughput dose response assay to identify antagonists of the Galanin Receptor 3 (GalR3). It counts as functional.
The target of test [5] is T1, Small ubiquitin-related modifier 1 (Homo sapiens, UniProt P63165). As to the kind of experiment: inhibitors of SUMO1 partner interactions, dose response, biochemical, FRET (AID 624383). It counts as functional. As to conditions: read-out: IC50_Mean.
T1 sequence (P63165 whole entry): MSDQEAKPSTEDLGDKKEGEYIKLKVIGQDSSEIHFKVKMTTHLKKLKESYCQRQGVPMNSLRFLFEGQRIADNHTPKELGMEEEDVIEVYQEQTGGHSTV
For test [6], the target named is T2, SUMO-activating enzyme (Homo sapiens, UniProt Q9UBT2). As to the kind of experiment: SUMOylation inhibitor hit validation, confirmation, SUMOylation inhibitor project, biochemical, AlphaScreen (AID 2018). In kind it is functional.
T2 sequence (Q9UBE0 whole entry): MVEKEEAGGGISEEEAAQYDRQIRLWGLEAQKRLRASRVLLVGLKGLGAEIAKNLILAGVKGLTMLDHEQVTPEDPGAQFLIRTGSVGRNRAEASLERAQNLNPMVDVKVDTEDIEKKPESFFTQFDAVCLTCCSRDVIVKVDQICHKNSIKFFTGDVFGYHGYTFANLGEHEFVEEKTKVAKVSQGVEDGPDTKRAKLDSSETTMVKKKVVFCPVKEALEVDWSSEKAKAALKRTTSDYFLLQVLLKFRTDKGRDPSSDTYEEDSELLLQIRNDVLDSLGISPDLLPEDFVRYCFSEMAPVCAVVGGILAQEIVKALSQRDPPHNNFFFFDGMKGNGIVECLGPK
T2 sequence (Q9UBT2 whole entry): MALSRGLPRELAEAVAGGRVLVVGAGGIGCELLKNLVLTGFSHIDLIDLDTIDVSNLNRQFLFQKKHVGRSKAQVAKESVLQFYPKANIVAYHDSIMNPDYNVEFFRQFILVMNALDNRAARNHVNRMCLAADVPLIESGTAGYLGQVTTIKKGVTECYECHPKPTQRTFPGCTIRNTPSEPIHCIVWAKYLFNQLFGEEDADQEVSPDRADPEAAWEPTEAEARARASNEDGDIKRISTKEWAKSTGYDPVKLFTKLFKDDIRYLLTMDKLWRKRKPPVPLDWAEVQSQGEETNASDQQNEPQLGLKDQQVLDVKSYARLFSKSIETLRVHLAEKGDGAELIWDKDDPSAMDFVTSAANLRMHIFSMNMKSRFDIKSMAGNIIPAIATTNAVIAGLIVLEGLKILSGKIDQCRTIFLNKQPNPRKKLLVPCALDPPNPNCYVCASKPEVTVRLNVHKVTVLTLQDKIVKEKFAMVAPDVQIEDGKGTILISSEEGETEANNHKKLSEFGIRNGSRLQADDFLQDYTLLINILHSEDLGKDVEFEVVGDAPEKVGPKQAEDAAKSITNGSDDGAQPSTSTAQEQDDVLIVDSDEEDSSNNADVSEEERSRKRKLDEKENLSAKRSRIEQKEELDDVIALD
Test [7] addresses T3, Low molecular weight phosphotyrosine protein phosphatase (Homo sapiens, UniProt P24666).
T3 sequence (P24666 whole entry): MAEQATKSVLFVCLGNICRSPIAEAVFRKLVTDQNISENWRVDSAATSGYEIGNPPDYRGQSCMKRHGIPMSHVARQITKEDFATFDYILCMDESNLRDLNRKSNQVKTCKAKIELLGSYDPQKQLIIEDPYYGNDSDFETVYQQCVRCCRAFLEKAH
In kind it is functional. As to conditions: read-out: IC50_Mean.

Test [8] concerns the target T1, Small ubiquitin-related modifier 1. In words: inhibitors of SUMO1 peptide binding, dose response, biochemical, fluorescence polarization, uHTS hits (AID 624382). As to conditions: read-out: IC50_Mean. It counts as functional. (In fluorescence polarisation assays a small probe gives low polarisation when free and higher when bound to something large.)
Test [9] addresses T4, Tyrosine-protein phosphatase non-receptor type 22 (Homo sapiens, UniProt Q9Y2R2).
T4 sequence (Q9Y2R2 whole entry): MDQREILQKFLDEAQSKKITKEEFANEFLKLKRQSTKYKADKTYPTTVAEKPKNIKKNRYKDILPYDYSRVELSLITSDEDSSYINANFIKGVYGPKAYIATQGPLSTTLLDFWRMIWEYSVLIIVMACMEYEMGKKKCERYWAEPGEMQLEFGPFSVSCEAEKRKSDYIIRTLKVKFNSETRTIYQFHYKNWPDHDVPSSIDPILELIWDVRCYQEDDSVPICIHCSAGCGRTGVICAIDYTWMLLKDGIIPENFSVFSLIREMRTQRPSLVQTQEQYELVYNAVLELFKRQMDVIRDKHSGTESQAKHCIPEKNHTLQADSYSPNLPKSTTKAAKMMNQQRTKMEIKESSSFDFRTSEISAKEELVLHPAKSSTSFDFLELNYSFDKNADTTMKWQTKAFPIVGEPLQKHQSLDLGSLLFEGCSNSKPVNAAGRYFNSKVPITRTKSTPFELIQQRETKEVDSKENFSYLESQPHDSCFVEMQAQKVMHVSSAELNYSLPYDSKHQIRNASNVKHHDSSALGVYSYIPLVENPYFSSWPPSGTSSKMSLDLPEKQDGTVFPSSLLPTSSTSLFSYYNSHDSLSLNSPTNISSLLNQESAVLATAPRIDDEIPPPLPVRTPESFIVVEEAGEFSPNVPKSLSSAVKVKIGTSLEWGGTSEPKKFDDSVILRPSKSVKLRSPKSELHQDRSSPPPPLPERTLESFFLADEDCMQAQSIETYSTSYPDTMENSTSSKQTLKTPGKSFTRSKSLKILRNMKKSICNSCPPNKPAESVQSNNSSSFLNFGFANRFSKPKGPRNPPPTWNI
As to the kind of experiment: PTPN22 phosphatase inhibition, dose response, selectivity assay for STEP inhibitor project, biochemical (AID 624241). It counts as functional.

Test [10] has as its target T2, SUMO-activating enzyme. As to the kind of experiment: inhibitors of in vitro SUMOylation cascade, primary screen, biochemical, HTRF, uHTS (AID 2006). It counts as protein-complex assay.
The target of test [11] is T5, Carboxy-terminal domain RNA polymerase II polypeptide A small phosphatase 1 (Homo sapiens, UniProt Q9GZU7).
T5 sequence (Q9GZU7 whole entry): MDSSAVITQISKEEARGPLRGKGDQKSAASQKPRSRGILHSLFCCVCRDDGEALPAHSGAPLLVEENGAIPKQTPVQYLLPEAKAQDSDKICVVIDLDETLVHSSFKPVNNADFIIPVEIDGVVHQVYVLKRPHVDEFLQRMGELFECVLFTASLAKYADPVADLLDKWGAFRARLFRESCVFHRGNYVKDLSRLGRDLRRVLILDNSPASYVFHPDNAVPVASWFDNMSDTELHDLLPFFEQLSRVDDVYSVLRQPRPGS
As to the kind of experiment: inhibitors of CTDSP1, concentration-response testing, biochemical assay, absorbance-based, actives from ultra-high-throughput screening (AID 540297). It counts as functional.

Test [12] deals with T6, Tyrosine-protein phosphatase non-receptor type 11 (Homo sapiens, UniProt Q06124).
T6 sequence (Q06124 whole entry): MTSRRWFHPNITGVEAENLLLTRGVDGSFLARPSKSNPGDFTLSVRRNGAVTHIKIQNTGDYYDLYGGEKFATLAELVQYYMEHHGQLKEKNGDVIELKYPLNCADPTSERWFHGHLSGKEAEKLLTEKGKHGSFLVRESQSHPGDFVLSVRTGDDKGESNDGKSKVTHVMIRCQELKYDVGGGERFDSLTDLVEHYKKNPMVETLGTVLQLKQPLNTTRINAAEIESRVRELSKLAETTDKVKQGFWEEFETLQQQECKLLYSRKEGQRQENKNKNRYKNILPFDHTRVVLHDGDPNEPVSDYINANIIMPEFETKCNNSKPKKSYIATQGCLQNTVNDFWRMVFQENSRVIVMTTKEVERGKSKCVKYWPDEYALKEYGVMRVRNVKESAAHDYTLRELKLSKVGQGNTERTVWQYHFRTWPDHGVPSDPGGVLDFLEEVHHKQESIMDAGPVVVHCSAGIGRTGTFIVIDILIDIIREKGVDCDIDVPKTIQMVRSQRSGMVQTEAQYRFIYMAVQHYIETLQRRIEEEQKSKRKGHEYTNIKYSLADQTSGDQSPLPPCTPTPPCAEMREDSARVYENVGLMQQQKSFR
As to the kind of experiment: SHP2 phosphatase inhibition, dose response, selectivity assay for STEP inhibitor project, biochemical (AID 602367). In kind it is functional. As to conditions: read-out: IC50_Mean.

The target of test [13] is T7, Tyrosine-protein phosphatase non-receptor type 5 (Homo sapiens, UniProt P54829).
T7 sequence (P54829 whole entry): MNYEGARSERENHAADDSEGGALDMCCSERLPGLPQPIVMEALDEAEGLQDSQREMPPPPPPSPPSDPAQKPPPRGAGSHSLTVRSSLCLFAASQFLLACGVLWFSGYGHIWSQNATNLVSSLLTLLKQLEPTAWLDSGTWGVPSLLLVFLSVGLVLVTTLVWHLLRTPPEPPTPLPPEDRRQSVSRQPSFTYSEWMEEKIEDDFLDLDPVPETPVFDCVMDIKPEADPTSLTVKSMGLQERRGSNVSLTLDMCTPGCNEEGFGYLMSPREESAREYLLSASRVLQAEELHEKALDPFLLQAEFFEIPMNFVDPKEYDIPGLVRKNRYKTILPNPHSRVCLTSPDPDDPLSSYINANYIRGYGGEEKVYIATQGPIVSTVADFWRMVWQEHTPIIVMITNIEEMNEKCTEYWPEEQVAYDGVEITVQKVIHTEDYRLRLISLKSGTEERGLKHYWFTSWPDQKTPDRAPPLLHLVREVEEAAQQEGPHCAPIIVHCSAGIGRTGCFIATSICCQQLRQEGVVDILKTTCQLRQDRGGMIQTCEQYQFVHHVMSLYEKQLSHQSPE
As to the kind of experiment: STEP phosphatase inhibitors, confirmation, biochemical, fluorescence intensity, uHTS hits (AID 602372). It counts as functional. As to conditions: read-out: IC50_Mean.

Test [14] addresses Dual specificity protein phosphatase 3 (Homo sapiens, UniProt P51452). As to the kind of experiment: VHR phosphatase inhibition, dose response, selectivity assay for STEP inhibitor project, biochemical (AID 602374). As to conditions: read-out: IC50_Mean. In kind it is functional.
Test [15] concerns the target T3, Low molecular weight phosphotyrosine protein phosphatase. It counts as functional. The conditions noted are these: read-out: IC50_Mean. This is another data set of the same source.
Test [16] can be described thus: cells. In kind it is functional, cell-based.
The nature of test [17]: Luminescence Cell-Based Dose Retest to Confirm Inhibitors of Cancer Stem Cells. [Related pubchem assays (depositor defined):AID2717, AID2721]. As to conditions: Homo sapiens. It counts as functional.
Test [18] concerns the target Nuclear receptor subfamily 0 group B member 1 (Homo sapiens, UniProt P51843). In kind it is functional, cell-based.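 Further: HEK293T cells transfected with SF-1 and DAX-1 plus StAR promoter luciferase reporter.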
Test [19] has as its target Heat shock protein HSP 90-alpha (Homo sapiens, UniProt P07900). It counts as functional, organism-based.
Test [20] concerns the target Disintegrin and metalloproteinase domain-containing protein 17 (Homo sapiens, UniProt P78536). As to the kind of experiment: exosite inhibitors of ADAM17, dose response, biochemical (AID 743260).
A short description of test [21]: ADAM10 protease inhibitors, dose response, selectivity assay for ADAM17 exosite inhibitor project, biochemical, FRET peptide substrate, recombinant human ADAM10 (AID 743259).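 Further: ADAM10 enzyme cleaving a FRET peptide substrate.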
Test [22] deals with Botulinum neurotoxin type F (Clostridium botulinum, UniProt P30996). As to the kind of experiment: High-throughput multiplex microsphere dose response for inhibitors of toxin protease, specifically Botulinum neurotoxin light chain F protease, compounds from Cherry Pick 02. It counts as functional. The conditions noted are these: read-out: EC50_MICROM.
Sequence of Botulinum neurotoxin type F (P30996 1-436 limits assumed): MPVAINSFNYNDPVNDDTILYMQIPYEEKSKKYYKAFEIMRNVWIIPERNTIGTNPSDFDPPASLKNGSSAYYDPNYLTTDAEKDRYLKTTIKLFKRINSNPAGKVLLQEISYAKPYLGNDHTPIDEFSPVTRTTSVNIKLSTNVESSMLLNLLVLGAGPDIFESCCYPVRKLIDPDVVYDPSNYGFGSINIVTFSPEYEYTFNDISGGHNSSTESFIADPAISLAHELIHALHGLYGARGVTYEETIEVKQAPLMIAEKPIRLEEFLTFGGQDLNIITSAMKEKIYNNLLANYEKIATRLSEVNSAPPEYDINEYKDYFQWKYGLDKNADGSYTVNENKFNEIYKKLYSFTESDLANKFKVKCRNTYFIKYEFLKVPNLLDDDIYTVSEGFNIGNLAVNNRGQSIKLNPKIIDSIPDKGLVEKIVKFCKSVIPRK
For test [23], the target named is Lethal factor (Bacillus anthracis, UniProt P15917). In words: High-throughput multiplex microsphere dose response for inhibitors of toxin protease, specifically Lethal Factor protease, compounds from Cherry Pick 02. In kind it is functional. The conditions noted are these: read-out: EC50_MICROM.
Sequence of Lethal factor (P15917 whole entry): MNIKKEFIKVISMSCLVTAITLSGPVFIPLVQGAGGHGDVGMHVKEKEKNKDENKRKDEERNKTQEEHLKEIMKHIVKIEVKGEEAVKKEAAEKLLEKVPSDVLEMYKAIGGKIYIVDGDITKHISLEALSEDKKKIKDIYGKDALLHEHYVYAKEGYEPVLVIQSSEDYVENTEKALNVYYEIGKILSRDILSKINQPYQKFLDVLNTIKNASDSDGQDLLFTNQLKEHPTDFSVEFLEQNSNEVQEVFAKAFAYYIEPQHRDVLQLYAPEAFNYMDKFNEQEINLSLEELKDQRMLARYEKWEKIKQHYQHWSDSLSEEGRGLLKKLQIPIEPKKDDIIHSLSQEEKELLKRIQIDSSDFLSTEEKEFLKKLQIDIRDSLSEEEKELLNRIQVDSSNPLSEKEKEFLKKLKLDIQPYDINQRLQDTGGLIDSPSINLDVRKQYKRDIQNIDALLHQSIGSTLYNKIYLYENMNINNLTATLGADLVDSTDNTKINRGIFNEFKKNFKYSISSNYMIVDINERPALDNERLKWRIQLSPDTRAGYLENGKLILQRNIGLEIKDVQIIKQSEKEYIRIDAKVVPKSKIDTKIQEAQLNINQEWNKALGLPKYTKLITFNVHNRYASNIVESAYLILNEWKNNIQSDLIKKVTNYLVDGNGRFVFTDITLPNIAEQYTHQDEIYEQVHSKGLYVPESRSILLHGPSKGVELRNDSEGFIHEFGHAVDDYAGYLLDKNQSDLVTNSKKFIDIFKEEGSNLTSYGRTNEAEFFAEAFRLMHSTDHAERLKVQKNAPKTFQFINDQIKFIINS

Calls of active or inactive are those of the source. Some results are limits rather than exact numbers.

Broadly, the AC50 is the midpoint of the concentration-response curve, whichever way the signal moves.

Sequence of Nuclear receptor subfamily 0 group B member 1 (P51843 whole entry): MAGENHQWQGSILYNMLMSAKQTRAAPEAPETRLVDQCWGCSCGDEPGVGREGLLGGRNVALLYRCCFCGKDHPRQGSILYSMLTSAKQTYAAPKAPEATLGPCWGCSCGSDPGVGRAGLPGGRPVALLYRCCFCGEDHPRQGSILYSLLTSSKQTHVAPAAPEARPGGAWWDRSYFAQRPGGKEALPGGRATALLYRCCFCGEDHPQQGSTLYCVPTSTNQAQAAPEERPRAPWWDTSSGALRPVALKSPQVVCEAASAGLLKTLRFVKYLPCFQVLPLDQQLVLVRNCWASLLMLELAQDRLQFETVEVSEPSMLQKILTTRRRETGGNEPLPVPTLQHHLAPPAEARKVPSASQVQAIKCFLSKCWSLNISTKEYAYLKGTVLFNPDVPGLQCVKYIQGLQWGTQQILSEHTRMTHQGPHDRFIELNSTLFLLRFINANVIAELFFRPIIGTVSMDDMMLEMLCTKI
Sequence of Galanin receptor type 3 (O60755 whole entry): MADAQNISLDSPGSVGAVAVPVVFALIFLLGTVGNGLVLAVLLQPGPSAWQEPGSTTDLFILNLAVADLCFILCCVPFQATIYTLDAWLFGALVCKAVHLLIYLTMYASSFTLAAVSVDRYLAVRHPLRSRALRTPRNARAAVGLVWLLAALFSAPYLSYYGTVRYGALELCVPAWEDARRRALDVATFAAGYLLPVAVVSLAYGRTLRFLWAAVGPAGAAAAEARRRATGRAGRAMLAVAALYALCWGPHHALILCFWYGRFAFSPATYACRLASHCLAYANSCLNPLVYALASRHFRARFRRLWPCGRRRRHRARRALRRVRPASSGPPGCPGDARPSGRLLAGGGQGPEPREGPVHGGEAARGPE
Sequence of Mu-type opioid receptor (P35372 whole entry): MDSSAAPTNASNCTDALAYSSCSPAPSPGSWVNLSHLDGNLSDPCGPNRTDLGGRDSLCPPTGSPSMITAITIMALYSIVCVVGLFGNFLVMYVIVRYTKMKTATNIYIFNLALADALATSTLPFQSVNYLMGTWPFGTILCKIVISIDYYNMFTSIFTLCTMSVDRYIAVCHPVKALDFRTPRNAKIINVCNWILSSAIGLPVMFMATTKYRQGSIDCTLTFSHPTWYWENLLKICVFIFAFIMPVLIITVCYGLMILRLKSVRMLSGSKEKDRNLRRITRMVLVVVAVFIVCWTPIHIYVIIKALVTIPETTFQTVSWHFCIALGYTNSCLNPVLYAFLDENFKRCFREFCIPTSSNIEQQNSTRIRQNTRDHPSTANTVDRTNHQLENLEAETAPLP
Sequence of Dual specificity protein phosphatase 3 (P51452 whole entry): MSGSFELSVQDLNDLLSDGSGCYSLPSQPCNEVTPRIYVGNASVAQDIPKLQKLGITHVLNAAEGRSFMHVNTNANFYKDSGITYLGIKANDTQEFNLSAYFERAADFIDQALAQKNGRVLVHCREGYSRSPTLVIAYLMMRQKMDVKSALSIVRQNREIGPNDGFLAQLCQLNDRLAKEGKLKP
Sequence of 5-hydroxytryptamine receptor 2A (P35363 whole entry): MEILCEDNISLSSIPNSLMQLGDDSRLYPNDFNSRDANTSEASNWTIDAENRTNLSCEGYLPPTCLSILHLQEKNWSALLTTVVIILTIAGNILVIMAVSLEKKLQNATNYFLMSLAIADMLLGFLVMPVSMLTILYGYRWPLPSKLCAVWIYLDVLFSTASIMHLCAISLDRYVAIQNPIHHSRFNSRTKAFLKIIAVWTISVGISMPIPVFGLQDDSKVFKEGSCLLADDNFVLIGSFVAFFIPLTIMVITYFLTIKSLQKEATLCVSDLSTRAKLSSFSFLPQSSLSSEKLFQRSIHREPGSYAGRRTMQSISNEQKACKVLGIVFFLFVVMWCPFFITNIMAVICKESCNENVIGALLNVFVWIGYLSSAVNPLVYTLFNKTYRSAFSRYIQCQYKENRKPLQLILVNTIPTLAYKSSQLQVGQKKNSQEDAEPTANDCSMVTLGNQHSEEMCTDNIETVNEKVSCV

Turning to `O=C(c1ccco1)N1CCN(Cc2ccc(Br)cc2)CC1`, the EC50 in test [1] is 2.24 µM (active); in [2], 92.4 µM (inactive).

In the case of `COC(=O)CSc1nc(N)c(C#N)c(-c2ccc(O)cc2)c1C#N`, the EC50 in [3] is > 29.9 µM (inactive). Further, in [4], the IC50 was > 29.9 µM (inactive).

With `Cc1c(CC(=O)O)c(=O)oc2c(C)c(OCc3ccc(F)cc3Cl)ccc12`, the IC50 was 15.7 µM (active) in test [5]; > 100 µM (inactive) in test [6]; 11.5 µM (active) in test [7]; > 66.6 µM (inactive) in test [8]; 12.7 µM (active) in test [9]; 12.5 µM (active) in [10]. The IC50 in test [11] was 2.17 µM (active); in test [12] it was 2.48 µM (active); in test [13], 5.58 µM (active); in test [14], 3.68 µM (active).

Take `CC(Nc1nc(-c2ccccc2)nc2ccccc12)c1ccccc1` (centres undefined): the IC50 was > 80 µM (inactive) in test [15], > 67.5 µM (inactive) in [16], 23.1 µM (inactive) in [7] and > 67.5 µM (inactive) in test [18]. The AC50 in [17] is 4.43 µM (active).

As for `OCCCn1c(C2CCCN2c2nc(-c3ccc(F)cc3)cs2)nc2cc(Cl)c(Cl)cc21` (centres undefined), the AC50 in test [19] was 5.05 µM (active). The IC50 in [20] and in test [21] was > 69.5 µM (inactive) throughout.

As for `CCCCCCCCC(c1nc2cc(C)c(C)cc2[nH]1)n1c(=O)c(-c2ccccc2Br)nc2ccccc21` (centres undefined), the EC50 in test [22] was > 20 µM (inactive); in [23], 17.9 µM (active).

Values taken from ChEMBL document CHEMBL1201862, “PubChem BioAssay data set” (2004).
